The experiment has as its system T1, B. licheniformis DMN6 trypsin (arginine-specific alkaline trypsin).
T1 construct: gene BLDMN6; native secreted enzyme purified from DMN6 culture supernatant (DEAE, Superdex 75); 44 kDa by SDS-PAGE
As to the kind of experiment: spectrophotometric hydrolysis at […] nm, Lineweaver-Burk. Particulars: 25 °C, 50 mM Tris-HCl pH 9.0, 0.1-1.5 mM BAEE. It is filed as biochemical, Bacillus licheniformis.

Each structure is given as a SMILES string.

Take `CCOC(=O)[C@H](CCCNC(=N)N)NC(=O)c1ccccc1` [BAEE]: the Km came out at 880 µM.

What is called Km is the concentration of substrate that gives half-maximal velocity.

The values above are taken from paper PMC4691143, “Biochemical Characterization of An Arginine-Specific Alkaline Trypsin from Bacillus licheniformis” (International Journal of Molecular Sciences, 2015).
